Laboratory results as given in PubChem BioAssay AID2305 (GlaxoSmithKline (GSK), 2010).

tested on: P. falciparum 3D7 growth, pLDH absorbance; assay: P. falciparum 3D7 growth inhibition, dose response, strain 3D7 (AID 2305)

Structure (SMILES)	IC50
O=c1c2ccc(Sc3ccccn3)cc2n(-c2ccccc2)c2cc(Sc3ccccn3)ccc12	200 nM
Cc1cc(CNCCCCCNCc2cccc([N+](=O)[O-])c2)ccc1O	780 nM
Cc1sc(NC(=O)Cc2cccc(C(F)(F)F)c2)nc1-c1cccc(Cl)c1	470 nM
CCOC(=O)c1c[nH]c2c(ccc3ccccc32)c1=O	160 nM
C[C@@H]1CN(c2cnn(C/C=C/c3ccc(NC(=O)c4ccc([N+](=O)[O-])cc4)cc3)c(=O)c2Cl)C[C@H](C)N1	700 nM
COc1ccc2sc(CNCCCNc3cc(=O)c4ccccc4[nH]3)c(Cl)c2c1	1070 nM
COC(=O)c1cccc(NC(=O)NCCNc2ccnc(Nc3ccc(F)cc3)n2)c1	840 nM
Cc1cc(NC(=O)c2cc(S(=O)(=O)N3CCCCC3)ccc2C)no1	720 nM
Oc1cc(Nc2ccnc3cc(I)ccc23)ccc1F	740 nM
Fc1ccc(N(c2nc(-c3cc(F)cc(C(F)(F)F)c3)cs2)C2CCNCC2)cc1	960 nM
CC(C)(C)c1ccc(CN2CCC(CNC(=O)c3cc(-c4ccccc4)nc4ccccc34)CC2)cc1	1020 nM
COc1ccc(Cn2c(Nc3cccc(C(F)(F)F)c3)nc3cc(C(=O)NCCCN(C)C)ccc32)cc1Cl	910 nM
CCn1cnc2c(N3CCCC3=O)cc(C(=O)N[C@@H](Cc3ccccc3)[C@H](O)CNC3CCCCC3)cc21	570 nM
CCCC(C)n1ccc2c3c(N)nc(N)nc3ccc21 (stereo not given)	50 nM
Oc1ccc(C2CNCCc3c2cc(O)c(OCc2ccccc2)c3Cl)cc1 (stereo not given)	720 nM
CCCCCCC(C)c1cc(O)c2c(c1)OC(C)(C)C=C2c1ccncc1 (stereo not given)	730 nM
N=c1c2c(n(Cc3ccccc3)c3c1CCC3)CCCC2	870 nM
COc1cccc(-c2ccc3ccnc(N)c3c2)c1	410 nM
NC(N)=NCCCN(Cc1ccccc1)c1ccccc1	580 nM
Cc1noc(C)c1-c1cccc(CNCc2cccc(-c3ccc(-c4nc5ccc(C(F)(F)F)cc5[nH]4)s3)c2)c1	170 nM
O=C(NC1CCC(N2CCC(O)(c3ccc(F)cc3)CC2)CC1)c1cc2ccccc2[nH]1 (stereo not given)	740 nM
Cc1ccc(-c2ccc3c(c2)C=C(C(=O)NCC2CCN(CC4CCN(C(=O)/C=C/c5ccc(Cl)c(Cl)c5)CC4)CC2)CCC3)cc1	780 nM
CN(C)C(=NCCCCCCN=C(NC(N)=NCc1ccc(Cl)c(Cl)c1)N(C)C)NC(N)=NCc1ccc(Cl)c(Cl)c1	300 nM
O=C(/C=C/c1ccccc1)N1CCOC(CCN2CCC(c3ccccc3)CC2)(c2ccc(Cl)c(Cl)c2)C1 (stereo not given)	520 nM

Structure (SMILES)	IC50
COc1ccc(S(=O)(=O)NC2CCN(c3ccnc4cc(Cl)ccc34)C2)cc1 (stereo not given)	490 nM
Cc1cc(Nc2ccc3c(c2)CCC3)n2ncnc2n1	970 nM
COc1ccc2ncc(F)c([C@H](O)CN3CCC(NCc4ccc5c(c4)NC(=O)CO5)CC3)c2c1	170 nM
COc1cc(NCC(O)CNc2cc(OC)c3ccccc3n2)nc2ccccc12	110 nM
Cc1ccc2c(=O)cc(CCc3cccc(F)c3F)n(CC(=O)N(Cc3ccc(-c4ccc(C(F)(F)F)cc4)cc3)C3CCN(C(C)C)CC3)c2n1	780 nM
CC(C)CC(=O)NC1CCN(Cc2c(-c3cccs3)nc3ccccc3c2C(=O)N[C@@H](C)C2CCCCC2)CC1	820 nM
COc1ccc(C[C@H]2NC[C@H](O)[C@H]2OC(C)=O)cc1	140 nM
O=C1Nc2cccc3c2C1(CCCCN1CCC(c2c(-c4ccc(F)cc4)[nH]c4ccccc24)CC1)CCC3 (stereo not given)	1190 nM
CC[C@H](C)CNC(=O)c1ccnc(-c2ccc(CNC3Cc4ccccc4C3)cc2)c1	570 nM
CCC(C)Oc1ccc2nc(N)nc(N)c2c1Cl (stereo not given)	180 nM
O=C(/C=C/c1ccc(Cl)c(Cl)c1)N1CCC(CN2[C@@H]3CC[C@H]2CC(c2c[nH]c4ccccc24)C3)CC1 (stereo not given in full)	740 nM
CCCCCN1CCCCC(NS(=O)(=O)c2ccc(C(=O)Nc3ccc(C(F)(F)F)cc3)cc2)C1 (stereo not given)	770 nM
Cc1[nH]c(C)c(-c2ccc(-c3ccccc3Cl)nc2)c(=O)c1Br	170 nM
COc1ccc(-c2cnc3ccc(NCc4ccc(S(N)(=O)=O)cc4)nn23)cn1	870 nM
Fc1ccc(CNc2nc(-c3ccc(F)c(C(F)(F)F)c3)n(-c3cccc(C(F)(F)F)c3)n2)cc1	560 nM
COc1ccc(NS(=O)(=O)c2cc(NC(=O)Cn3ccccc3=O)ccc2N2CCCCC2)cc1	700 nM
Cc1nc(N)nc(N)c1-c1cc(Cl)c(N)c(Cl)c1	800 nM
CC(Cc1ccc(NC(=O)COc2ccc(CC(C)NCCc3cccc(Cl)c3)cc2)cc1)NCCc1cccc(Cl)c1 (stereo not given)	80 nM
Cc1cc(N[C@@H](Cc2ccccc2)C(=O)NCc2cccc(F)c2)nc(NCCc2cccs2)n1	620 nM
O=C(NCCCCN1CC[C@@H]2c3cccc(O)c3CC[C@H]21)c1ccc(-c2ccccc2)cc1	1380 nM
COc1cc2c(cc1OC)CN(CCc1ccc(NC(=O)c3cc4cc(OC(F)(F)F)ccc4[nH]3)cc1)CC2	530 nM
Fc1ccc2nccc(NN=CC=Cc3ccccc3)c2c1	680 nM
Oc1ccccc1CCNC1CCc2ccccc2C1 (stereo not given)	930 nM
FC(F)(F)c1ccc(Nc2nnnc3ccccc23)cc1	690 nM

Structure (SMILES)	IC50
COc1ccc(-c2cccc(NC(=O)c3cccc(F)c3)c2)cc1CN1CCCN(C)CC1	600 nM
O=S(=O)(c1ccc(OCc2ccc(Cl)cc2)cc1)c1cc2c(cc1OCc1ccccc1)CCN(C1CCC1)CC2	1020 nM
CCCCc1ccc2nc(NC(=O)OC)[nH]c2c1	680 nM
COc1ccc(CN2CCC(CNCC(c3ccccc3)c3ccccc3)CC2)cc1	230 nM
Cc1ncsc1CCN1C(=O)CC2(C1=O)C(=O)N(Cc1ccccc1)c1ccc(Cl)cc12 (stereo not given)	980 nM
COc1ccc(-c2ccc(NC(=O)c3cccc(Cl)c3)cc2)cc1CN1CCC(O)CC1	710 nM
CCn1c(-c2nonc2N)nc2c(-c3cccc(NC(=O)Nc4cccc(C(F)(F)F)c4)c3)ncc(OCCCN)c21	970 nM
Cc1ccc(NC(=O)Cc2noc(CC3CCCN3C(=O)N[C@@H](C)c3ccccc3)n2)cc1 (stereo not given in full)	370 nM
O=C(NCc1cccc(F)c1)c1ccc(O)c(-c2cc(Cl)cc(Cl)c2)c1	560 nM
COc1ccc(NC(=O)NC2CCN(c3ccnc4cc(Cl)ccc34)CC2)cc1	730 nM
O=C(/C=C/c1ccc(Cl)c(Cl)c1)NCCCCCN1CCCC(CNC(=O)c2sc3ccccc3c2Cl)C1 (stereo not given)	870 nM
COc1ccc2ncc(F)c(CCN3C[C@H](CNCc4cc(C#N)c5c(c4)OCCO5)[C@H](O)C3)c2n1	580 nM
O=c1cc(NCCCNCc2cc3ccccc3s2)[nH]c2ccccc12	1270 nM
CCCCCn1c(Sc2ccc(C#N)c([N+](=O)[O-])c2)nnc1-c1cc(OC)cc(OC)c1	960 nM
O=C(/C=C/c1ccc(Cl)cc1)NCCCCCN1CCN(C(=O)Nc2ccc(Cl)c(C(F)(F)F)c2)CC1	920 nM
Cc1c(S(=O)(=O)Nc2cccc(CCN3CCCCC3CCN3CCCC3)c2)sc2ccc(Cl)cc12 (stereo not given)	930 nM
CCCc1ccc2c(c1O)CCC(N(CCC)CCC)C2 (stereo not given)	890 nM
CC(C)c1ccc(CN2CCCCC(NC(=O)c3cc(-c4ccccc4F)cs3)C2)cc1 (stereo not given)	670 nM
COc1ccc2c(c1)c(C1CCN(CCCCNC(=O)c3ccc(-c4ccc(C(F)(F)F)cc4)cc3)CC1)cn2C(C)C	730 nM
CC1CCCN1Cc1cccc(-c2ccc(C(=O)NCCOc3ccccc3)s2)c1 (stereo not given)	930 nM
COc1cc(F)c2ncc(Cl)c([C@@H](O)CN3CCC(NCc4cc5c(cn4)OCCO5)CC3)c2c1	100 nM
O=C(NCCCc1ccccc1)c1csc(C2CCCN(C(=O)c3ccc(O)c(-c4cccc5ccccc45)c3)C2)n1 (stereo not given)	970 nM
